Source: patent US7608415B2, “Analysis of intracellular modifications” (Discoverx Corporation, priority 2004, dated 2009)

System: IκB-PL
Assay: Homogenous EFC assay of lysates of HeLa/IκB-PL stable cell line stimulated with TNF-α
Format: cell-based
Details: increasing time periods
Source text: The second experimental example illustrates the sensitivity of the EAstern blot method by following the regulated degradation of a PL-tagged cellular protein, IκB-PL. […] Stimulation of cells with cytokines, such as TNF-α, activates a pathway that leads to phosphorylation, ubiquitination, and subsequent degradation of IκB, which in turn leads to the release and activation of NF-κB. The regulated degradation of IκB is thus an indicator for NF-κB pathway activation.
Cell lysate samples for EAstern blot analysis were prepared from a HeLa/IκB-PL stable cell line (WO 03/021265, filed Aug. 27, 2002) that was cultured and stimulated with TNF-α for increasing time periods. […] Another fraction of each was used for gel electrophoresis and transfer to PVDF blots as described above. To detect IκB-PL, the EAstern blot protocol was adapted for use with the chemiluminescent substrate Beta-Glo (Promega Corp., Cat. No. E4720). In particular, after incubating with EA Reagent, the blot was incubated at RT for 10 min in a solution of Beta-Glo:EACB (1:1, v/v), sandwiched between clear plastic sheets, and then its luminescence detected with a CCD camera.

Q: For TNF-α, which “IκB-PL EFC signal after TNF-α stimulation” value is on record?
A: time-dependent degradation of IκB-PL signal
